Assay results from patent publication US20240109924A1, “IP4-4,6 SUBSTITUTED DERIVATIVE COMPOUNDS” (SANIFIT THERAPEUTICS, S.A., priority 2021, published 2024).
Counter-ions that a name gives are not always drawn.

Experiment: In vitro inhibition of calcium phosphate crystallization in human plasma (spectrophotometric assay)
Assay type: biochemical
Conditions: 0-100 μM, 1.5 mM phosphate, 12.5 mM calcium, pH 7.4, absorbance 550 nm, slope 6-24 min, read-out: Relative Potency
Description: The in vitro efficacy of the IP4-4,6 substituted derivatives (e.g., Compounds 1 to 53) of the invention on the inhibition of calcium phosphate crystallization in human plasma samples was evaluated according to a spectrophotometric assay previously described in the art (Ferrer M, et al., Sci Rep 2017; 7:6858, doi:10.1038/s41598-017-07203-x).
A 96-well plate was employed. Plasma was spiked (1 volume of the IP4-4,6 substituted derivatives of the invention per 19 volumes of plasma) with increasing concentrations of the derivatives in the range of 0-100 μM. Plasma was then centrifuged at 10,000 g at rt and subsequently mixed with a mixture of 5 mM hydrogen phosphate and 41.67 mM calcium to attain final concentrations of 1.5 mM phosphate and 12.5 mM calcium, respectively. All reagent solutions were filtered, and pH adjusted to 7.4.
Crystallization of calcium phosphate was monitored spectrophotometrically for 30 min at rt by measuring the increments in absorbance at 550 nm using the Biotek Powerwave XS Microplate spectrophotometer (BioTek Instruments, Inc., Winooski, VT, US). The plate was incubated at rt in an orbital shaker and absorbance measured every 3 min.
Plasma crystallization was assessed based on slope measurement in the linear range between 6 and 24 min from plots of increase in absorbance versus logarithm of time. The efficacy of different myo-inositol phosphates derivatives in preventing in vitro formation of calcium phosphate crystals was assessed in human plasma samples using the slopes obtained between 6- and 24-min. Inhibition of crystallization was measured by comparing the slopes of the control sample (blank plasma) with those of samples containing the inhibitor as shown below: […]

| Structure (SMILES) | EC50 [µM] |
| --- | --- |
| COCc1cn(CCCOC2C(OP(=O)(O)O)C(OCCCn3cc(COC)nn3)C(OP(=O)(O)O)C(OP(=O)(O)O)C2OP(=O)(O)O)nn1 (stereo not shown) [Compound 36, 4,6-O-bis(3-(4-(methoxymethyl)-1H-1,2,3-triazol-1-yl)propyl)-myo-inositol-1,2,3,5-tetrakis(phosphate) octasodium salt] | 5 to 10 |
| O=C(O)c1cn(CCCCCCOC2C(OP(=O)(O)O)C(OCCCCCCn3cc(C(=O)O)nn3)C(OP(=O)(O)O)C(OP(=O)(O)O)C2OP(=O)(O)O)nn1 (stereo not shown) [Compound 40, 4,6-O-(6-(4-carboxy-1H-1,2,3-triazol-1-yl)hexyl)-myo-inositol-1,2,3,5-tetrakis(phosphate) decasodium salt] | ≤ 5 |
| COc1ccc(CCCOC2C(OP(=O)(O)O)C(OCCCc3ccc(OC)cc3)C(OP(=O)(O)O)C(OP(=O)(O)O)C2OP(=O)(O)O)cc1 (stereo not shown) [Compound 43, 4,6-O-bis(3-(4-methoxyphenyl)propyl)-myo-inositol-1,2,3,5-tetrakis(phosphate) octasodium salt] | 5 to 10 |
| O=P(O)(O)OC1C(OCCCc2cccc(C(F)(F)F)c2)C(OP(=O)(O)O)C(OP(=O)(O)O)C(OP(=O)(O)O)C1OCCCc1cccc(C(F)(F)F)c1 (stereo not shown) [Compound 44, 4,6-O-bis(3-(3-(trifluoromethyl)phenyl)propyl)-myo-inositol-1,2,3,5-tetrakis(phosphate) octasodium salt] | > 10 |
| O=C(NCCCCCOC1C(OP(=O)(O)O)C(OCCCCCNC(=O)c2cccs2)C(OP(=O)(O)O)C(OP(=O)(O)O)C1OP(=O)(O)O)c1cccs1 (stereo not shown) [Compound 49, 4,6-O-bis(5-(thiophene-2-carboxamido)pentyl)-myo-inositol-1,2,3,5-tetrakis(phosphate) octasodium salt] | 5 to 10 |
| CCCCCOC1C(OP(O)(O)=S)C(OCCCCC)C(OP(O)(O)=S)C(OP(O)(O)=S)C1OP(O)(O)=S (stereo not shown) [Compound 50, 4,6-O-dipentyl-myo-inositol-1,2,3,5-tetrakis(thiophosphate) octasodium salt] | > 10 |
| COCCCCCOC1C(OP(O)(O)=S)C(OCCCCCOC)C(OP(O)(O)=S)C(OP(O)(O)=S)C1OP(O)(O)=S (stereo not shown) [Compound 51, 4,6-O-bis(5-Methoxypentyl)-myo-inositol-1,2,3,5-tetrakis(thiophosphate) octasodium salt] | > 10 |
| O=C(O)CCCOC1C(OP(=O)(O)O)C(OCCCC(=O)O)C(OP(=O)(O)O)C(OP(=O)(O)O)C1OP(=O)(O)O (stereo not shown) [Compound 52, 4,6-O-bis(3-carboxypropyl)-myo-inositol-1,2,3,5-tetrakis(phosphate) decasodium salt] | ≤ 5 |
| C#CCOC1C(OP(=O)(O)O)C(OCC#C)C(OP(=O)(O)O)C(OP(=O)(O)O)C1OP(=O)(O)O (stereo not shown) [Compound 53, 4,6-O-Dipropargyl-myo-inositol-1,2,3,5-tetrakis(phosphate) octasodium salt] | ≤ 5 |

The next lines start with the values.

| EC50 [µM] | Structure (SMILES) |
| --- | --- |
| 5 to 10 | COCc1cn(CCCCOC2C(OP(=O)(O)O)C(OCCCCn3cc(COC)nn3)C(OP(=O)(O)O)C(OP(=O)(O)O)C2OP(=O)(O)O)nn1 (stereo not shown) [Compound 37, 4,6-O-bis(4-(4-(methoxymethyl)-1H-1,2,3-triazol-1-yl)butyl)-myo-inositol-1,2,3,5-tetrakis(phosphate) octasodium salt] |
| ≤ 5 | COCc1cn(CCCCCOC2C(OP(=O)(O)O)C(OCCCCCn3cc(COC)nn3)C(OP(=O)(O)O)C(OP(=O)(O)O)C2OP(=O)(O)O)nn1 (stereo not shown) [Compound 38, 4,6-O-bis(5-(4-(methoxymethyl)-1H-1,2,3-triazol-1-yl)pentyl)-myo-inositol-1,2,3,5-tetrakis(phosphate) octasodium salt] |
| ≤ 5 | COCc1cn(CCCCCCOC2C(OP(=O)(O)O)C(OCCCCCCn3cc(C(=O)O)nn3)C(OP(=O)(O)O)C(OP(=O)(O)O)C2OP(=O)(O)O)nn1 (stereo not shown) [Compound 41, 4-O-(6-(4-carboxy-1H-1,2,3-triazol-1-yl)hexyl)-6-O-(6-(4-(methoxymethyl)-1H-1,2,3-triazol-1-yl)hexyl)-myo-inositol-1,2,3,5-tetrakis(phosphate) nonasodium salt] |
| ≤ 5 | O=C(O)CCCC(=O)NCCCOC1C(OP(=O)(O)O)C(OCCCNC(=O)CCCC(=O)O)C(OP(=O)(O)O)C(OP(=O)(O)O)C1OP(=O)(O)O (stereo not shown) [Compound 45, 4,6-O-bis((3-(4-carboxybutanamido)propyl))-myo-inositol-1,2,3,5-tetrakis(phosphate) decasodium salt] |
| 5 to 10 | O=C(NCCCOC1C(OP(=O)(O)O)C(OCCCNC(=O)Nc2ccccc2)C(OP(=O)(O)O)C(OP(=O)(O)O)C1OP(=O)(O)O)Nc1ccccc1 (stereo not shown) [Compound 46, 4,6-O-bis(3-(3-phenylureido)propyl)-myo-inositol-1,2,3,5-tetrakis(phosphate) octasodium salt] |
| ≤ 5 | O=C(NCCCOC1C(OP(=O)(O)O)C(OCCCNC(=O)NC2CCCC2)C(OP(=O)(O)O)C(OP(=O)(O)O)C1OP(=O)(O)O)NC1CCCC1 (stereo not shown) [Compound 47, 4,6-O-bis(3-(3-cyclopentylureido)propyl)-myo-inositol-1,2,3,5-tetrakis(phosphate) octasodium salt] |
| > 10 | O=C(NCCCCCOC1C(OP(=O)(O)O)C(OCCCCCNC(=O)c2ccccc2)C(OP(=O)(O)O)C(OP(=O)(O)O)C1OP(=O)(O)O)c1ccccc1 (stereo not shown) [Compound 48, 4,6-O-bis(5-benzamidopentyl)-myo-inositol-1,2,3,5-tetrakis(phosphate) octasodium salt] |
